Test results taken from US6589976B1, “Utilizing spirocyclic phenyl keto-enols as pesticides and herbicides” (Bayer Aktiengesellschaft, priority 1997, dated 2003).

Assays:
[1] = test system: greenhouse spider mite (Tetranychus urticae); experiment: Tetranychus-Test (OP-resistant/dipped Treatment); type: in vivo; conditions: active compound concentration of 0.01%, after 7 days
Description: Tetranychus-Test (OP-resistant/dipped Treatment)
(§1) Solvent: 3 parts by weight of dimethylformamide
(§2) Emulsifier: 1 part by weight of alkylaryl polyglycol ether
(§3) To produce a suitable preparation of active compound, 1 part by weight of active compound is mixed with the stated amount of solvent and the stated amount of emulsifier, and the concentrate is diluted with water to the desired concentration.
Bean plants (Phaseolus vulgaris), which are heavily infested by all stages of the greenhouse spider mite (Tetranychus urticae) are dipped into a preparation of active compound of the desired concentration.
After the desired period of time, the activity in % is determined. 100% means that all spider mites have been killed, 0% means that none of the spider mites have been killed.

[2] = test system: larvae of the green rice leaf hoppers (Nepliotettix cincticeps); experiment: Nephotettix-Test (rice seedlings dipped); type: in vivo, Nephotettix cincticeps; conditions: active compound concentration of 0.1%, after 6 days
Description: Solvent: 7 parts by weight dimethylformamide
as §2, §3
Rice seedlings (Oryza sativa) are treated by being dipped into the preparation of active compound of the desired concentration and populated with larvae of the green rice leaf hoppers (Nepliotettix cincticeps) while the seedlings are still moist.
After the desired period of time, the kill in % is determined. 100% means that all leaf hoppers have been killed, 0% means that none of the leaf hoppers have been killed.

[3] = test system: fruit tree red spider mite (Panonychus ulmi); experiment: Panonychus-Test (plum trees sprayed); type: in vivo; conditions: active compound concentration of 0.02%, after 7 days
Description: as §1, §2
To produce a suitable preparation of active compound, 1 part by weight of active compound is mixed with the stated amount of solvent and the stated amount of emulsifier, and the concentrate is diluted with emulsifier-containing water to the desired concentration.
Plum trees (Prunus domestica), of a height of approximately 30 cm which are heavily infested by all development stages of the fruit tree red spider mite (Panonychus ulmi) are sprayed with a preparation of active compound of the desired concentration.
After the desired period of time, the effect in % is determined. 100% means that all spider mites have been killed, 0% means that none of the spider mites have been killed.

[4] = test system: caterpillars of the owlet moth (Spodoptera frugiperda); experiment: Spodoptera Frugiperda-Test (cabbage leaves dipped); type: in vivo; conditions: active compound concentration of 0.1%, after 7 days
Description: Spodoptera Frugiperda-Test
(§4) Solvent: 7 parts by weight of dimethylformamide
as §2, §3
Cabbage leaves (Brassica oleracea) are treated by being dipped into the preparation of active compound of the desired concentration and populated with caterpillars of the owlet moth (Spodoptera frugiperda) while the leaves are still moist.
After the desired period of time, the kill in % is determined. 100%, means that all caterpillars have been killed; 0% means that none of the caterpillars have been killed.

[5] = test system: Lucilia cuprina-Larvae; experiment: Blowfly-Larvae-Test/Development-inhibitory Action; type: in vivo; conditions: active compound concentration of 1000 ppm, read-out: activity (inhibition of fly emergence)
Description: Blowfly-Larvae-Test/Development-inhibitory Action
Test animals: Lucilia cuprina-Larvae
Solvent: dimethyl sulphoxide
20 mg of active compound are dissolved in 1 ml of dimethyl sulphoxide, more dilute concentrations are prepared by dilution with distilled H2O.
Approximately 20 Lucilia cuprina larvae are introduced into a test tube which contains approximately 1 cm^3 of horse meat and 0.5 ml of the preparation of active compound to be tested. After 24 and 48 hours, the efficacy of the preparation of active compound is determined. The test tubes are transferred into beakers whose bottom is covered with sand. After a further 2 days, the test tubes are removed, and the pupae are counted.
The activity of the preparation of active compound is assessed by the number of flies which have emerged after 1.5 times the development time of an untreated control. 100% means that no flies have emerged; 0% means that all the flies have emerged normally.

[6] = test system: larvae of the mustard beetle (Phaedon cochleariae); experiment: Phaedon-Larvae-Test (cabbage leaves dipped); type: in vivo; conditions: active compound concentration of 0.1%, after 7 days
Description: as §4, §2, §3
After the desired period of time, the kill in % was determined. 100% means that all beetle larvae have been killed, 0% means that none of the beetle larvae have been killed.

[7] = test system: peach affids (Myzus persicae); experiment: Myzus-Test (cabbage leaves dipped); type: in vivo; conditions: active compound concentration of 0.1%, after 6 days
Description: as §4, §2, §3
Cabbage leaves (Brassica oleracea), which are heavily infested by peach affids (Myzus persicae) are treated by being dipped into the preparation of active compound of the desired concentration.
After the desired period of time, the kill in per cent is determined. 100% means that all affids have been killed; 0% means that none of the affids have been killed.

CON=C1CCC2(CC1)OC(=O)C(c1c(C)cc(C)cc1C)=C2O (centres unmarked) [Example I-2-a-2]
100%: kill [1] | kill [2]

CON=C1CCC2(CC1)OC(=O)C(c1c(C)cc(C)cc1C)=C2OC(=O)C(C)(C)C (centres unmarked) [Example I-2-b-2]
100%: kill [1] | effect (spider mites killed) [3] | kill [4] | inhibition at 1000 ppm [5] | kill [6] | kill [7]
